Experimental data taken from patent US10244759B2, “Use of forchlorfenuron for promoting plant growth” (KIM-C1 LLC, priority 2013, dated 2019).
Entries after “also recorded” stand apart in the source; their conditions may differ.

Experiments:
[1] = test system: Cotton plants (G. hirsutum, FiberMax 9180 B2F); assay: Cotton yield enhancement under abiotic and biotic stresses, boll count (Example 3); format: in vivo, Gossypium hirsutum; settings: for number bolls: at harvest; for % increase over control: number bolls
Experimental: Cotton plants grown from commercial cotton seeds (G. hirsutum, FiberMax 9180 […], Bayer CropScience) were treated with forchlorfenuron at various stages of growth. […] Control plants were not treated at any stage of growth. At the time of harvest, cotton bolls on all plants were counted, and the percentages of bolls that were open and closed were calculated.

[2] = pH range; cited from earlier work
Winter wheat [3] = assay: Wheat root dry weight after spray (Example 5); format: in vivo; settings: dry weight 50 days after planting, untreated 0.85
Experimental: (§1) Plants were sprayed with 0, 2.5, 5, or 7.5 ppm forchlorfenuron, at the cotyledon growth stage in the case of broccoli or at stage 1 in the case of wheat (treatment A), and optionally again with 5 ppm forchlorfenuron three days thereafter (treatment B). The dry weights of the plant roots were measured 50 days after planting.

Winter wheat [4] = assay: Winter wheat seed treatment, root weight (Table 3); format: in vivo; settings: untreated 0.91
[5] = test system: cotton (G. hirsutum, FiberMax 9058); assay: Cotton seedling spray, lateral root development and phytotoxicity (Example 2); format: in vivo, Gossypium hirsutum; settings: seedlings sprayed 6 days after planting
Experimental: Commercial cotton seed (G. hirsutum, FiberMax 9058, Bayer CropScience) was planted in conetainers and grown for 6 days prior to spraying with a range of forchlorfenuron concentrations. The plants were grown an additional 5 days prior to washing out the roots. Initial concentrations (0, 5, 10, 15, 20, 25, 50, 100, 250, 500, 1000, and 2000 ppm) were evaluated.

[6] = cited from earlier work
[7] = test system: cotton seeds (G. hirsutum, FiberMax 9058); assay: Cotton seed soak, lateral root development (Example 1); format: in vivo, Gossypium hirsutum
Description: Commercial cotton seeds (G. hirsutum, FiberMax 9058, Bayer CropScience) were submerged in tubs containing forchlorfenuron at concentrations of 0, 25, 50, 100, 250, 500, 1000, 4000 and 8000 ppm for 10 seconds. The seeds were then placed on paper towels on the lab bench and allowed to air dry. Six days after the seed soak, the seeds were planted in “conetainers” and placed in a greenhouse for one week. The soil was removed from the conetainer and the roots were washed by gently dipping the soil into a bucket of water. Roots were photographed and evaluated for lateral root development.

Broccoli = Broccoli root dry weight after spray (Example 5); format: in vivo; settings: for root weight, Broccoli (AB spray) / root weight, Broccoli (A spray): dry weight 50 days after planting, untreated 0.69
Experimental: as §1

[8] = test system: Broccoli plants (B. oleracea, var. Waltham 29); assay: Broccoli root length, stem length and ratio thereof (Example 4); format: in vivo, Brassica oleracea; settings: for Root Length AB Spray / Root/Stem Ratio AB Spray / Shoot Length AB Spray / Root Length A Spray / Root/Shoot Ratio A Spray / Shoot Length A Spray: percentage of the untreated level, 60 days after planting
Experimental: Broccoli plants (B. oleracea, var. […] The root length and stem length were measured 60 days after planting and the ratio of root length to stem length was calculated for every plant.

[9] = 1st square spray, 5 ppm, Day 41
[10] = treating G. hirsutum seeds or plants
[11] = 2.5 ppm ai at cotyledon stage + 5 ppm 3 days after
[12] = 5 ppm ai at cotyledon stage + 5 ppm 3 days after
[13] = 7.5 ppm ai at cotyledon stage + 5 ppm 3 days after

O=C(Nc1ccccc1)Nc1ccnc(Cl)c1 [forchlorfenuron, 1-(2-chloropyridin-4-yl)-3-phenylurea]
% closed bolls [1, 9]: 56.7%
% open bolls [1, 9]: 43.3%
number bolls [1, 9]: 1096
% closed bolls ([1]; Seed soak, 250 ppm on Day 1): 66.9%
% open bolls ([1]; Seed soak, 250 ppm on Day 1): 33.1%
number bolls ([1]; Seed soak, 250 ppm on Day 1): 1212
number bolls ([1]; Seedling spray, 5 ppm at cotyledon-first leaf stage, Day 21): 1202
% closed bolls ([1]; Seedling spray, 5 ppm, Day 21): 70.5%
% open bolls ([1]; Seedling spray, 5 ppm, Day 21): 29.5%
% increase over control [1, 9]: 1%
% increase over control ([1]; Seed soak, 250 ppm on Day 1): 12%
% increase over control ([1]; Seedling spray, 5 ppm, Day 21): 11%
effect on number of healthy cotton bolls per plant [1, 10]: increased the number of healthy cotton bolls per plant
stability [2]: stable across a wide pH range
root weight, Winter wheat (AB spray) (Winter wheat [3]; 2.5 ppm ai at stage 1 + 5 ppm 3 days after): 0.76 grams
root weight, Winter wheat (A spray) (Winter wheat [3]; 2.5 ppm ai at stage 1): 0.91 grams
root weight, Winter wheat (AB spray) (Winter wheat [3]; 5 ppm ai at stage 1 + 5 ppm 3 days after): 0.71 grams
root weight, Winter wheat (A spray) (Winter wheat [3]; 5 ppm ai at stage 1): 0.69 grams
root weight, Winter wheat (AB spray) (Winter wheat [3]; 7.5 ppm ai at stage 1 + 5 ppm 3 days after): 0.87 grams
root weight, Winter wheat (A spray) (Winter wheat [3]; 7.5 ppm ai at stage 1): 0.72 grams
root weight, Winter Wheat Seed Treat. (Winter wheat [4]; 2.5 ppm ai): 0.97 grams
root weight, Winter Wheat Seed Treat. (Winter wheat [4]; 5 ppm ai): 0.81 grams
root weight, Winter Wheat Seed Treat. (Winter wheat [4]; 7.5 ppm ai): 0.86 grams
concentration with highest lateral root development ([5]; roots washed out 5 days later): 5 ppm
Severe phytotoxicity, application concentration ([5]; 0-2000 ppm tested): above 50 ppm
solubility in water [6]: weakly soluble in water; also recorded: poorly soluble in water
rooting patterns / lateral root lengths ([7]; seed treatment 250 ppm vs 0 ppm, eight plants per treatment (FIG. 1)): clear differences in rooting patterns; also recorded: increases in the lateral root lengths
concentration of optimal lateral root production ([7]; seeds submerged 10 seconds, 0-8000 ppm tested): 250 ppm
effect on lateral root development [7, 10]: increased lateral root development
root weight, Broccoli (AB spray) (Broccoli; [11]): 0.67 grams
root weight, Broccoli (A spray) (Broccoli; 2.5 ppm ai at cotyledon stage): 0.68 grams
root weight, Broccoli (AB spray) (Broccoli; [12]): 0.79 grams
root weight, Broccoli (A spray) (Broccoli; 5 ppm ai at cotyledon stage): 0.8 grams
root weight, Broccoli (AB spray) (Broccoli; [13]): 0.79 grams
root weight, Broccoli (A spray) (Broccoli; 7.5 ppm ai at cotyledon stage): 0.76 grams
increase in root weight above the untreated level (Broccoli; treatment A at 5 ppm, absence of treatment B): > 10%
increase in root weight above the untreated level (Broccoli; treatment A at 5 ppm, presence of treatment B): > 10%
increase in root weight above the untreated level (Broccoli; treatment A at 7.5 ppm, absence of treatment B): > 10%
increase in root weight above the untreated level (Broccoli; treatment A at 7.5 ppm, presence of treatment B): > 10%
Root Length AB Spray [8, 11]: 104.39%
Root/Stem Ratio AB Spray [8, 11]: 138.67%
Shoot Length AB Spray [8, 11]: 79.98%
Root Length A Spray ([8]; 2.5 ppm ai at cotyledon stage): 91.86%
Root/Shoot Ratio A Spray ([8]; 2.5 ppm ai at cotyledon stage): 94.53%
Shoot Length A Spray ([8]; 2.5 ppm ai at cotyledon stage): 95.25%
Root Length AB Spray [8, 12]: 97.39%
Root/Stem Ratio AB Spray [8, 12]: 124.29%
Shoot Length AB Spray [8, 12]: 90.62%
Root Length A Spray ([8]; 5 ppm ai at cotyledon stage): 100.6%
Root/Shoot Ratio A Spray ([8]; 5 ppm ai at cotyledon stage): 137.48%
Shoot Length A Spray ([8]; 5 ppm ai at cotyledon stage): 80.12%
Root Length AB Spray [8, 13]: 106.69%
Root/Stem Ratio AB Spray [8, 13]: 119.08%
Shoot Length AB Spray [8, 13]: 90.13%
Root Length A Spray ([8]; 7.5 ppm ai at cotyledon stage): 97.46%
Root/Shoot Ratio A Spray ([8]; 7.5 ppm ai at cotyledon stage): 105.16%
Shoot Length A Spray ([8]; 7.5 ppm ai at cotyledon stage): 91.78%
increase in the ratio of root length to stem length above the untreated level ([8]; Treatment A alone at 5 ppm): > 20%
effect on ratio of root length to stem length ([8]; moderate concentrations): increases the ratio of root length to stem length
increase in the ratio of root length to stem length above the untreated level ([8]; treatment A at 2.5 ppm together with treatment B): > 20%
increase in the ratio of root length to stem length above the untreated level ([8]; treatment A at 5 ppm together with treatment B): > 20%
